How the values were obtained:
Type in all cases: in vivo
[1] = tested on: diamondback moths (Plutella xylostella); test: Insecticidal test for diamondback moths; conditions: 500 ppm chemical solution, leaves soaked, third-instar larvae, six days, 25°C; for mortality at 500 µg/mL: Plutella xylostella, 144 h, read-out: death rate; for death rate: 8640 min
Procedure: A 10% by mass emulsion of the presently invented compound prepared according to the above formulation example for an emulsion was diluted with water containing a spreader to prepare a chemical solution having a concentration of 500 ppm. Chinese olive leaves were soaked in the chemical solution for approximately 10 seconds. After the completion of the soaking operation, the Chinese olive leaves treated with the chemical solution were air-dried, and then put in dishes. Into each dish, five third-instar diamondback moths (Plutella xylostella) larvae were released, and the dishes were capped and accommodated in a thermostatic room at 25°C. […] The test was carried out in duplicate.

[2] = tested on: western flower thrips (Frankliniella occidentalis); test: Insecticidal activity against western flower thrips; conditions: 500 ppm chemical solution sprinkled (2.5 mg/cm^2), larvae on common bean leaf, after 2 days; for mortality at 500 µg/mL: Frankliniella occidentalis, 48 h, read-out: death rate
Procedure: Wet filter paper was laid on each styrol cup having an inner diameter of 7 cm, and a common bean leaf cut into a 3 cm square was placed thereon, and inoculated with 20 western flower thrips (Frankliniella occidentalis) larvae. A 10% by mass emulsion of the presently invented compound prepared according to the above formulation example for an emulsion was diluted with water containing a spreader to prepare a chemical solution having a concentration of 500 ppm. For each styrol cup, 2.5 ml of the chemical solution prepared was sprinkled (2.5 mg/cm^2) with a rotary tower sprinkler. […] The test was carried out in duplicate.

[3] = tested on: cat fleas (Ctenocephalides felis); test: whole plant or invertebrate; conditions: 72 h, read-out: death rate
Procedure: In 1 ml of acetone, 1 mg of the presently invented compound was dissolved to prepare a chemical solution having a concentration of 1000 ppm. The bottom surface and side surface of each glass container having an inner wall surface area of 25 cm^2 were coated with 250 µl of the chemical solution, and acetone was then volatilized to form a thin film of the compound on the inner wall of the glass container.
Into each of the treated glass containers, five cat fleas (Ctenocephalides felis) imagoes (mixed-sex) were released, and the glass containers were capped and accommodated in a thermostatic room at 25°C. Three days after the release, the number of dead flea individuals were examined, and the death rate was calculated from the same calculation formula as in Test Example 1.

[4] = tested on: brown rice planthoppers (Nilaparvata lugens); test: Insecticidal test for brown rice planthoppers; conditions: 500 ppm chemical solution, rice leaf sheaths soaked, third-instar larvae, six days, 25°C; for mortality at 500 µg/mL: Nilaparvata lugens, 144 h, read-out: death rate; for death rate: 8640 min
Procedure: A 10% by mass emulsion of the presently invented compound prepared according to the above formulation example for an emulsion was diluted with water containing a spreader to prepare a chemical solution having a concentration of 500 ppm. Rice leaf sheaths were soaked in the chemical solution for approximately 10 seconds. After the completion of the soaking operation, the rice leaf sheaths treated with the chemical solution were air-dried, and then put in test tubes. Into each test tube, five third-instar brown rice planthoppers (Nilaparvata lugens) larvae were released, and the test tubes were capped with sponge and accommodated in a thermostatic room at 25°C. Six days after the accommodation, the number of dead brown rice planthoppers individuals in the test tubes were examined, and the death rate was calculated from a calculation formula shown below. The test was carried out in duplicate. [formula]

| SMILES | mortality at 500 µg/mL [1] | mortality at 500 µg/mL [2] | mortality at 10 µg/cm2 [3] | also measured |
| --- | --- | --- | --- | --- |
| O=C(Nc1ccc(F)cc1)C1=C(O)CC(c2ccc(C(F)(F)F)c(-c3cncc(F)c3)c2)NC1=O (stereo not drawn) [1-002] | ≥ 90% | ≥ 90% | ≥ 50% | mortality at 500 µg/mL [4]: ≥ 90% |
| COc1ccc(-c2cc(C3CC(O)=C(C(=O)Nc4ccc(F)cc4)C(=O)N3)ccc2C(F)(F)F)cc1 (stereo not drawn) [1-018] | ≥ 90% |  | ≥ 50% |  |
| O=C(Nc1ccc(F)nc1)C1=C(O)CC(c2cnc(Cl)c(-c3ccc(F)nc3)c2)NC1=O (stereo not drawn) [2-008] | ≥ 90% | ≥ 90% | ≥ 50% | mortality at 500 µg/mL [4]: ≥ 90% |
| O=C(Nc1ccc(F)cn1)C1=C(O)CC(c2cnc(Cl)c(-c3ccc(F)nc3)c2)NC1=O (stereo not drawn) [2-009] | ≥ 90% | ≥ 90% | ≥ 50% | mortality at 500 µg/mL [4]: ≥ 90% |
| O=C(Nc1cnc(Cl)cn1)C1=C(O)CC(c2cnc(Cl)c(-c3ccc(F)nc3)c2)NC1=O (stereo not drawn) [2-011] | ≥ 90% | ≥ 90% | ≥ 50% | mortality at 500 µg/mL [4]: ≥ 90% |
| O=C(Nc1ccc(C(F)(F)F)nc1)C1=C(O)CC(c2cnc(Cl)c(-c3ccc(F)nc3)c2)NC1=O (stereo not drawn) [2-012] | ≥ 90% | ≥ 90% | ≥ 50% | mortality at 500 µg/mL [4]: ≥ 90% |
| N#Cc1ccc(NC(=O)C2=C(O)CC(c3cnc(Cl)c(-c4ccc(F)nc4)c3)NC2=O)cn1 (stereo not drawn) [2-013] | ≥ 90% | ≥ 90% | ≥ 50% | mortality at 500 µg/mL [4]: ≥ 90% |
| COc1ccc(-c2cc(C3CC(O)=C(C(=O)Nc4ccc(Cl)nc4)C(=O)N3)cnc2Cl)cn1 (stereo not drawn) [2-017] |  |  |  | death rate [1]: ≥ 90% |
| C[S+]([O-])c1ccc(NC(=O)C2=C(O)CC(c3cnc(Cl)c(-c4ccc(Cl)nc4)c3)NC2=O)cc1 (stereo not drawn) [2-043] |  |  |  | death rate [4]: ≥ 90% |
| O=C(Nc1ncc(C(F)(F)F)cn1)C1=C(O)CC(c2cnc(Cl)c(-c3cncc(F)c3)c2)NC1=O (stereo not drawn) [2-051] |  |  |  | death rate [4]: ≥ 90% |
| O=C(Nc1ccc(Cl)nn1)C1=C(O)CC(c2cnc(Cl)c(-c3cncc(F)c3)c2)NC1=O (stereo not drawn) [2-052] |  |  |  | death rate [4]: ≥ 90% |
| CC(=O)c1ccc(-c2cc(C3CC(O)=C(C(=O)Nc4ccc(Cl)cn4)C(=O)N3)cnc2Cl)cc1 (stereo not drawn) [2-066] |  |  |  | death rate [1]: ≥ 90% |
| N#Cc1ccc(NC(=O)C2=C(O)CC(c3cnc(Cl)c(-c4cncc(F)c4)c3)NC2=O)cc1 (stereo not drawn) [2-071] |  | ≥ 90% | ≥ 50% | mortality at 500 µg/mL [4]: ≥ 90% |
| O=C(Nc1ccc(F)cc1)C1=C(O)CC(c2cnc(Cl)c(-c3ccccc3)c2)NC1=O (stereo not drawn) [2-089] | ≥ 90% | ≥ 90% | ≥ 50% | mortality at 500 µg/mL [4]: ≥ 90% |
| N#Cc1ccc(NC(=O)C2=C(O)CC(c3cnc(Cl)c(-c4ccccc4)c3)NC2=O)cc1 (stereo not drawn) [2-090] | ≥ 90% | ≥ 90% | ≥ 50% | mortality at 500 µg/mL [4]: ≥ 90% |
| Cc1cncc(-c2cc(C3CC(O)=C(C(=O)Nc4cnccn4)C(=O)N3)cnc2Cl)c1 (stereo not drawn) [2-148] | ≥ 90% |  | ≥ 50% |  |
| O=C(Nc1ccccn1)C1=C(O)CC(c2cnc(Cl)c(-c3ccc(F)cc3)c2)NC1=O (stereo not drawn) [2-226] | ≥ 90% | ≥ 90% | ≥ 50% |  |
| O=C(Nc1ccc(F)cc1)C1=C(O)CC(c2cnc(Cl)c(-c3ccc(F)cc3)c2)NC1=O (stereo not drawn) [2-229] | ≥ 90% | ≥ 90% | ≥ 50% |  |
| O=C(Nc1ccc(C(F)(F)F)cn1)C1=C(O)CC(c2cnc(Cl)c(-c3ccc(F)cc3)c2)NC1=O (stereo not drawn) [2-230] |  |  |  | death rate [2]: ≥ 90% |
| O=C(Nc1nccnn1)C1=C(O)CC(c2cnc(Cl)c(-c3ccc(F)cc3)c2)NC1=O (stereo not drawn) [2-237] |  |  |  | death rate [1]: ≥ 90% |
| O=C(Nc1ncccn1)C1=C(O)CC(c2cnc(Cl)c(-c3ccc(F)cc3)c2)NC1=O (stereo not drawn) [2-238] |  | ≥ 90% | ≥ 50% | mortality at 500 µg/mL [4]: ≥ 90% |
| O=C(Nc1nncs1)C1=C(O)CC(c2cnc(Cl)c(-c3ccc(F)cc3)c2)NC1=O (stereo not drawn) [2-239] |  | ≥ 90% |  |  |
| O=C(Nc1ccc(O)cc1)C1=C(O)CC(c2cnc(Cl)c(-c3ccc(F)cc3)c2)NC1=O (stereo not drawn) [2-241] |  |  |  | death rate [1]: ≥ 90% |
| C#Cc1ccc(NC(=O)C2=C(O)CC(c3cnc(Cl)c(-c4ccc(F)cc4)c3)NC2=O)cc1 (stereo not drawn) [2-243] |  |  |  | death rate [1]: ≥ 90% |

| SMILES | mortality at 500 µg/mL [1] | mortality at 500 µg/mL [2] | mortality at 10 µg/cm2 [3] | also measured |
| --- | --- | --- | --- | --- |
| COc1ccc(NC(=O)C2=C(O)CC(c3cnc(Cl)c(-c4cccc(C)c4)c3)NC2=O)cc1 (stereo not drawn) [2-258] |  |  |  | death rate [2]: ≥ 90% |
| Cc1cccc(-c2cc(C3CC(O)=C(C(=O)Nc4nccnn4)C(=O)N3)cnc2Cl)c1 (stereo not drawn) [2-270] |  |  | ≥ 50% |  |
| Cc1cccc(-c2cc(C3CC(O)=C(C(=O)Nc4cccnc4F)C(=O)N3)cnc2Cl)c1 (stereo not drawn) [2-275] |  |  | ≥ 50% |  |
| Cc1cccc(-c2cc(C3CC(O)=C(C(=O)Nc4ccc([N+](=O)[O-])cc4)C(=O)N3)cnc2Cl)c1 (stereo not drawn) [2-279] | ≥ 90% | ≥ 90% | ≥ 50% |  |
| Cc1ccc(NC(=O)C2=C(O)CC(c3cnc(Cl)c(-c4cccc(C)c4)c3)NC2=O)cc1 (stereo not drawn) [2-282] | ≥ 90% | ≥ 90% | ≥ 50% |  |
| CC(=O)c1ccc(NC(=O)C2=C(O)CC(c3cnc(Cl)c(-c4ccc(F)cc4)c3)NC2=O)cc1 (stereo not drawn) [2-295] |  |  |  | death rate [1]: ≥ 90% |
| CC(C)(C)OC(=O)c1ccc(NC(=O)C2=C(O)CC(c3cnc(Cl)c(-c4ccc(F)cc4)c3)NC2=O)cc1 (stereo not drawn) [2-296] |  | ≥ 90% |  |  |
| O=C(Nc1ccc(F)cc1)C1=C(O)CC(c2nc(-c3ccc(Cl)cc3)no2)NC1=O (stereo not drawn) [3-003] | ≥ 90% | ≥ 90% | ≥ 50% |  |
| O=C(Nc1ccc(F)cc1)C1=C(O)CC(c2nc(-c3ccc(C(F)(F)F)cc3)no2)NC1=O (stereo not drawn) [3-004] |  |  |  | death rate [1]: ≥ 90% |
| O=C(Nc1ccc(Cl)nc1)C1=C(O)CC(c2nc(-c3ccccc3F)no2)NC1=O (stereo not drawn) [3-019] |  |  |  | death rate [1]: ≥ 90% |
| O=C(Nc1cc(F)ccn1)C1=C(O)CC(c2nc(-c3ccccn3)no2)NC1=O (stereo not drawn) [3-045] |  | ≥ 90% | ≥ 50% | mortality at 500 µg/mL [4]: ≥ 90% |
| Cc1ccoc1-c1noc(C2CC(O)=C(C(=O)Nc3ccc(F)cn3)C(=O)N2)n1 (stereo not drawn) [3-094] |  |  |  | death rate [4]: ≥ 90% |
| O=C(Nc1ccc([N+](=O)[O-])c(Cl)c1)C1=C(O)CC(c2nc(-c3ccnc(F)c3)no2)NC1=O (stereo not drawn) [3-120] |  |  |  | death rate [2]: ≥ 90% |
| Cc1cncc(-c2noc(C3CC(O)=C(C(=O)Nc4ccc(F)cn4)C(=O)N3)n2)c1 (stereo not drawn) [3-130] |  |  |  | death rate [4]: ≥ 90% |
| O=C(Nc1cc(F)ccn1)C1=C(O)CC(c2nc(-c3c(F)cccc3Cl)no2)NC1=O (stereo not drawn) [3-143] | ≥ 90% |  |  |  |
| O=C(Nc1cc(F)ccn1)C1=C(O)CC(c2nc(-c3ccc(Cl)c(F)c3)no2)NC1=O (stereo not drawn) [3-145] | ≥ 90% | ≥ 90% | ≥ 50% |  |
| Cc1ccnc(NC(=O)C2=C(O)CC(c3nc(-c4ccccn4)no3)NC2=O)c1 (stereo not drawn) [3-152] |  |  |  | mortality at 500 µg/mL [4]: ≥ 90% |
| Cc1ccnc(-c2noc(C3CC(O)=C(C(=O)Nc4ccc(F)cn4)C(=O)N3)n2)c1 (stereo not drawn) [3-153] |  |  |  | death rate [4]: ≥ 90% |
| Cc1ccc(NC(=O)C2=C(O)CC(c3nc(-c4ccsc4)no3)NC2=O)nc1 (stereo not drawn) [3-168] |  |  |  | death rate [4]: ≥ 90% |
| O=C(Nc1cc(F)ccn1)C1=C(O)CC(c2nc(-c3ccncn3)no2)NC1=O (stereo not drawn) [3-212] | ≥ 90% |  | ≥ 50% |  |
| O=C(Nc1ncccc1F)C1=C(O)CC(c2nc(-c3cnccc3F)no2)NC1=O (stereo not drawn) [3-237] | ≥ 90% |  | ≥ 50% | mortality at 500 µg/mL [4]: ≥ 90% |
| O=C(Nc1cnccn1)C1=C(O)CC(c2nc(-c3ccc(F)cn3)no2)NC1=O (stereo not drawn) [3-261] |  | ≥ 90% |  | mortality at 500 µg/mL [4]: ≥ 90% |
| Cc1ccc(NC(=O)C2=C(O)CC(c3nc(-c4ccnc(F)c4)no3)NC2=O)cc1Cl (stereo not drawn) [3-267] |  | ≥ 90% |  |  |
| Cc1csc(NC(=O)C2=C(O)CC(c3nc(-c4ccc(F)nc4)no3)NC2=O)n1 (stereo not drawn) [3-290] |  |  |  | death rate [4]: ≥ 90% |
